Here are results for 32 molecules from patent US9908886B2 (Agency for Science, Technology and Research, priority 2012, dated 2018).

The target in one assay is MNK1 (Homo sapiens, UniProt Q9BUB5). In words: In vitro MNK kinase assay (Caliper LabChip mobility shift). It counts as biochemical.
A further assay has as its target MNK2 (Homo sapiens (Human), UniProt Q9HBH9). The description is as above. It counts as biochemical.
Where [1] appears, read: enzymatic, 1.2 mM ATP, read-out: IC50 Mnk1.
[2] abbreviates: enzymatic, 250 μM ATP, read-out: IC50 Mnk2.

Counter-ions that a name gives are not always drawn. Like-named read-outs stand apart in the source and are kept apart here. A value given as a limit tells only on which side of the number the result lay.

MNK2, sequence (Q9HBH9 84-388): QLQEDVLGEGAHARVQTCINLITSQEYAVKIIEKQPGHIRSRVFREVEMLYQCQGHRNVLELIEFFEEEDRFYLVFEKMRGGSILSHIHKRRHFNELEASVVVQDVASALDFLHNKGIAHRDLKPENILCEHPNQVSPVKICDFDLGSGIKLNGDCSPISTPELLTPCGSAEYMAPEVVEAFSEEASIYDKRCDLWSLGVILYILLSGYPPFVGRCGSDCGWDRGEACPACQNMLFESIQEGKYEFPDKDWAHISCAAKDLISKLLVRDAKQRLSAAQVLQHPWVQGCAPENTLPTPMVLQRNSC

For the molecule `CN1CCN(C(=O)c2ccc(-c3ccc4ncc(-c5ccc(C#N)cc5)n4n3)cc2[N+](=O)[O-])CC1` [Example 79, 4-(6-(4-(4-methylpiperazine-1-carbonyl)-3-nitrophenyl)imidazo[1,2-b]pyridazin-3-yl)benzonitrile], the IC50 at MNK1 (setting [1]) and on MNK2 (setting [2]) was below 0.1 µM in each case.
`N#Cc1ccc(-c2cnc3ccc(-c4ccc(C(=O)N5CCC(N)CC5)cc4)cn23)cc1` [Example 109, 4-(6-(4-(4-aminopiperidine-1-carbonyl)phenyl)imidazo[1,2-a]pyridin-3-yl)benzonitrile]: the IC50 at MNK1 (setting [1]) and at MNK2 (setting [2]) was below 0.1 µM in each case.
Take `COc1cc(-c2cn3c(-c4ccc(C#N)cc4)cnc3cn2)ccc1C(=O)N1CCN(C)CC1` [Example 39, 4-(6-(3-methoxy-4-(4-methylpiperazine-1-carbonyl)phenyl)imidazo[1,2-a]pyrazin-3-yl)benzonitrile]: the IC50 at MNK1 (setting [1]) and at MNK2 (setting [2]) was below 1 µM each time.
On to `Cc1cc(-c2ccc3ncc(-c4ccc(C#N)cc4)n3c2)ccc1C(=O)N1CCOCC1` [Example 156], for which the IC50 at MNK1 (setting [1]) and at MNK2 (setting [2]) was below 1 µM throughout.
For the molecule `CC(=O)NC1CCN(C(=O)c2ccc(-c3ccn4ncc(-c5ccc(C#N)cc5)c4n3)cc2)CC1` [Example 186, N-(1-(4-(3-(4-cyanophenyl)pyrazolo[1,5-a]pyrimidin-5-yl)benzoyl)piperidin-4-yl)acetamide], the IC50 on MNK1 (setting [1]) and on MNK2 (setting [2]) was below 0.1 µM each time.
Regarding `CCC1(N)CCN(C(=O)c2ccc(-c3ccc4ncc(-c5ccc(C#N)cc5)n4c3)cc2)CC1` [Example 113, 4-(6-(4-(4-amino-4-ethylpiperidine-1-carbonyl)phenyl)imidazo[1,2-a]pyridin-3-yl)benzonitrile], the concentration for half-maximal inhibition (IC50) on MNK1 (setting [1]) and on MNK2 (setting [2]) was below 0.1 µM each time.
Turning to `CC(C)N1CCN(C(=O)c2ccc(-c3ccc4ncc(-c5ccc(C#N)cc5)n4n3)cc2)CC1` [Example 59, 4-(6-(4-(4-isopropylpiperazine-1-carbonyl)phenyl)imidazo[1,2-b]pyridazin-3-yl)benzonitrile], the IC50 at MNK1 (setting [1]) and on MNK2 (setting [2]) was below 0.1 µM each time.
On to `Cc1cc(-c2cn3c(-c4ccc(C#N)cc4)cnc3cn2)ccc1C(=O)N1CCC(C)(N)CC1` [Example 28, 4-(6-(4-(4-amino-4-methylpiperidine-1-carbonyl)-3-methylphenyl)imidazo[1,2-a]pyrazin-3-yl)benzonitrile], for which the IC50 at MNK1 (setting [1]) and at MNK2 (setting [2]) was below 0.1 µM each time.
For the molecule `CS(=O)(=O)NC1CCN(C(=O)c2ccc(-c3ccc4ncc(-c5ccc(C#N)cc5)n4c3)cc2)CC1` [Example 111, N-(1-(4-(3-(4-cyanophenyl)imidazo[1,2-a]pyridin-6-yl)benzoyl)piperidin-4-yl)methanesulfonamide], the IC50 at MNK1 (setting [1]) and at MNK2 (setting [2]) was below 0.1 µM each time.
Turning to `CC(C)(C)N1CCN(C(=O)c2ccc(-c3cn4c(-c5ccc(C(N)=O)cc5)cnc4cn3)cc2)CC1` [Example 5, 4-(6-(4-(4-tert-butylpiperazine-1-carbonyl)phenyl)imidazo[1,2-a]pyrazin-3-yl)benzamide], the IC50 on MNK1 (setting [1]) and at MNK2 (setting [2]) was below 0.1 µM each time.
In the case of `N#Cc1ccc(-c2cnc3ccc(-c4ccc(C(=O)N5CCNCC5)cc4)nn23)cc1` [Example 65, 4-(6-(4-(piperazine-1-carbonyl)phenyl)imidazo[1,2-b]pyridazin-3-yl)benzonitrile], the IC50 on MNK1 (setting [1]) and on MNK2 (setting [2]) was below 0.1 µM in each case.
As to `CN(CC(=O)N1CCOCC1)C(=O)c1ccc(-c2ccc3ncc(-c4ccc(C#N)cc4)n3c2)cc1` [Example 101, 4-(3-(4-cyanophenyl)imidazo[1,2-a]pyridin-6-yl)-N-methyl-N-(2-morpholino-2-oxoethyl)benzamide], the 50% inhibitory concentration (IC50) on MNK1 (setting [1]) and on MNK2 (setting [2]) was below 0.1 µM in each case.
For the molecule `O=C1CCN(C(=O)c2ccc(-c3cn4c(-c5ccc(Cl)cc5)cnc4cn3)cc2)CC1` [Example 43, 1-(4-(3-(4-chlorophenyl)imidazo[1,2-a]pyrazin-6-yl)benzoyl)piperidin-4-one], the IC50 at MNK1 (setting [1]) and on MNK2 (setting [2]) was below 1 µM each time.
With `CN1CCN(C(=O)c2ccc(-c3cn4c(-c5ccc(Cl)cc5)cnc4cn3)cc2)CC1` [Example 41, (4-(3-(4-chlorophenyl)imidazo[1,2-a]pyrazin-6-yl)phenyl)(4-methylpiperazin-1-yl)methanone], the IC50 on MNK1 (setting [1]) and on MNK2 (setting [2]) was below 1 µM throughout.
On to `CC1(N)CCN(C(=O)c2ccc(-c3cn4c(-c5ccc(C#N)cc5)cnc4cn3)cc2Cl)CC1` [Example 32, 4-(6-(4-(4-amino-4-methylpiperidine-1-carbonyl)-3-chlorophenyl)imidazo[1,2-a]pyrazin-3-yl)benzonitrile], for which the IC50 is below 0.1 µM on MNK1 (setting [1]) and below 1 µM at MNK2 (setting [2]).
Turning to `CN1CCN(C(=O)c2ccc(-c3ccc4ncc(-c5ccc(C#N)cc5)n4c3)c(Cl)c2)CC1` [Example 153], the IC50 at MNK1 (setting [1]) and at MNK2 (setting [2]) was below 1 µM in each case.
Take `CN1CCN(C(=O)c2ccc(-c3cn4c(-c5ccc(C#N)cc5)cnc4cn3)c(O)c2)CC1` [Example 38, 4-(6-(2-hydroxy-4-(4-methylpiperazine-1-carbonyl)phenyl)imidazo[1,2-a]pyrazin-3-yl)benzonitrile]: the IC50 on MNK1 (setting [1]) and at MNK2 (setting [2]) was below 1 µM each time.
As for `CC1(N)CCN(C(=O)c2ccc(-c3cn4c(-c5ccc(C#N)cc5)cnc4cn3)cc2)CC1` [Example 23, 4-(6-(4-(4-amino-4-methylpiperidine-1-carbonyl)phenyl)imidazo[1,2-a]pyrazin-3-yl)benzonitrile Hydrochloride Salt], the IC50 is below 1 µM on MNK1 (setting [1]) and below 0.1 µM at MNK2 (setting [2]).
For the molecule `N#Cc1ccc(-c2cnn3ccc(-c4ccc(C(=O)N5CCNCC5)cc4)nc23)cc1` [Example 183, 4-(5-(4-(piperazine-1-carbonyl)phenyl)pyrazolo[1,5-a]pyrimidin-3-yl)benzonitrile], the 50% inhibitory concentration (IC50) on MNK1 (setting [1]) and on MNK2 (setting [2]) was below 0.1 µM throughout.
Turning to `NC(=O)c1ccc(-c2cnc3cnc(-c4ccc(C(=O)N5CCC(N)CC5)cc4)cn23)cc1` [Example 4, 4-(6-(4-(4-aminopiperidine-1-carbonyl)phenyl)imidazo[1,2-a]pyrazin-3-yl)benzamide hydrochloride], the IC50 at MNK1 (setting [1]) and on MNK2 (setting [2]) was below 0.1 µM each time.
As to `NC1CCN(C(=O)c2ccc(-c3ccc4ncc(-c5ccc(Cl)cc5)n4c3)cc2)CC1` [Example 174, (4-aminopiperidin-1-yl)(4-(3-(4-chlorophenyl)imidazo[1,2-a]pyridin-6-yl)phenyl)methanone], the IC50 on MNK1 (setting [1]) and at MNK2 (setting [2]) was below 0.1 µM in each case.
For `NC(=O)c1ccc(-c2cn3c(-c4ccc(Cl)cc4)cnc3cn2)cc1` [Example 42, 4-(3-(4-chlorophenyl)imidazo[1,2-a]pyrazin-6-yl)benzamide], the IC50 at MNK1 (setting [1]) and on MNK2 (setting [2]) was below 1 µM in each case.
As for `CN1CCN(C(=O)c2ccc(-c3ccc4ncc(-c5ccc(C#N)cc5)n4n3)cc2F)CC1` [Example 73, 4-(6-(3-fluoro-4-(4-methylpiperazine-1-carbonyl)phenyl)imidazo[1,2-b]pyridazin-3-yl)benzonitrile], the IC50 on MNK1 (setting [1]) and at MNK2 (setting [2]) was below 0.1 µM throughout.
Turning to `CNC1CCN(C(=O)c2ccc(-c3ccc4ncc(-c5ccc(C#N)cc5)n4c3)cc2NC(C)=O)CC1` [Example 169, N-(5-(3-(4-cyanophenyl)imidazo[1,2-a]pyridin-6-yl)-2-(4-(methylamino)piperidine-1-carbonyl)phenyl)acetamide], the IC50 at MNK1 and on MNK2 was below 0.1 µM in each case.
With `N#Cc1ccc(-c2cnc3ccc(-c4ccc(C(=O)N5CCC(N6CCOCC6)CC5)cc4)cn23)cc1` [Example 134, 4-(6-(4-(4-morpholinopiperidine-1-carbonyl)phenyl)imidazo[1,2-a]pyridin-3-yl)benzonitrile], the IC50 on MNK1 (setting [1]) and at MNK2 (setting [2]) was below 0.1 µM each time.
Take `N#Cc1ccc(-c2cnc3cnc(-c4ccc(C(=O)N5CCC6(CC5)COC6)cc4)cn23)cc1` [Example 24, 4-(6-(4-(2-oxa-7-azaspiro[3.5]nonane-7-carbonyl)phenyl)imidazo[1,2-a]pyrazin-3-yl)benzonitrile]: the IC50 at MNK1 (setting [1]) and on MNK2 (setting [2]) was below 1 µM in each case.
With `N#Cc1ccc(-c2cnc3ccc(-c4ccc(C(=O)N5CCOCC5)c(N5CCOCC5)c4)cn23)cc1` [Example 160, 4-(6-[3-(morpholin-4-yl)-4-(morpholin-4-ylcarbonyl)phenyl]imidazo[1,2-a]pyridin-3-yl)benzonitrile], the IC50 at MNK1 (setting [1]) and at MNK2 (setting [2]) was below 0.1 µM throughout.
With `CN1CCN(C(=O)c2ccc(-c3ccc4ncc(-c5ccc(C#N)cc5)n4c3)cc2C(F)(F)F)CC1` [Example 145, 4-(6-(4-(4-methylpiperazine-1-carbonyl)-3-(trifluoromethyl)phenyl)imidazo[1,2-a]pyridin-3-yl)benzonitrile], the IC50 on MNK1 (setting [1]) was below 0.1 µM; at MNK2 (setting [2]), below 1 µM.
Take `N#Cc1ccc(-c2cnc3ccc(-c4ccc(C(=O)NCCN5CCOCC5)cc4)cn23)cc1` [Example 116, 4-(3-(4-cyanophenyl)imidazo[1,2-a]pyridin-6-yl)-N-(2-morpholinoethyl)benzamide]: the IC50 at MNK1 (setting [1]) and at MNK2 (setting [2]) was below 1 µM throughout.
`N#Cc1ccc(-n2cnc3ccc(-c4ccc(C(=O)N5CCOCC5)cc4)cc32)cc1` [Example 190, 4-(6-(4-(morpholine-4-carbonyl)phenyl)-1H-benzo[d]imidazol-1-yl)benzonitrile]: the IC50 on MNK1 and on MNK2 was below 1 µM throughout.
With `CN1CCN(C(=O)c2ccc(-c3ccc4ncc(-c5ccc(O)cc5)n4c3)cc2)CC1` [Example 175, (4-(3-(4-hydroxyphenyl)imidazo[1,2-a]pyridin-6-yl)phenyl)(4-methylpiperazin-1-yl)methanone], the IC50 at MNK2 (setting [2]) was below 0.1 µM.
Consider `O=C(c1ccc(-c2cn3c(-c4ccc(Cl)cc4)cnc3cn2)cc1)N1CCC(NC(=O)C(F)(F)F)CC1` [Example 48, N-(1-(4-(3-(4-chlorophenyl)imidazo[1,2-a]pyrazin-6-yl)benzoyl)piperidin-4-yl)-2,2,2-trifluoroacetamide], for which the IC50 on MNK1 (setting [1]) was below 1 µM.

For orientation: IC50 means the concentration that inhibits the measured activity by half.
